Results taken from patent publication US6191282A, “Substituted 5-membered ring heterocycles comprising a bicyclic or tricyclic group their preparation and their use” (Hoechst Marion Roussel, priority 1993, dated 2001).
Where a name gives a salt, the structure may show the parent alone. Read-outs that look alike come from different tables or passages of the source.

How the values were obtained:
[1] = biological target: T1, isolated fibrinogen receptor (glycoprotein IIb/IIIa) (Homo sapiens, UniProt P05106+P08514); experiment: Inhibition of 125I-fibrinogen binding to the isolated, immobilized receptor (glycoprotein IIb/IIIa) (Test method 3); settings: isolated receptor immobilized in microtitre plates
T1 construct: isolated from human thrombocytes and immobilized in microtitre plates; from tissue; host or cells: human thrombocytes (platelets), receptor isolated
T1 sequence (P08514 32-887 limits assumed): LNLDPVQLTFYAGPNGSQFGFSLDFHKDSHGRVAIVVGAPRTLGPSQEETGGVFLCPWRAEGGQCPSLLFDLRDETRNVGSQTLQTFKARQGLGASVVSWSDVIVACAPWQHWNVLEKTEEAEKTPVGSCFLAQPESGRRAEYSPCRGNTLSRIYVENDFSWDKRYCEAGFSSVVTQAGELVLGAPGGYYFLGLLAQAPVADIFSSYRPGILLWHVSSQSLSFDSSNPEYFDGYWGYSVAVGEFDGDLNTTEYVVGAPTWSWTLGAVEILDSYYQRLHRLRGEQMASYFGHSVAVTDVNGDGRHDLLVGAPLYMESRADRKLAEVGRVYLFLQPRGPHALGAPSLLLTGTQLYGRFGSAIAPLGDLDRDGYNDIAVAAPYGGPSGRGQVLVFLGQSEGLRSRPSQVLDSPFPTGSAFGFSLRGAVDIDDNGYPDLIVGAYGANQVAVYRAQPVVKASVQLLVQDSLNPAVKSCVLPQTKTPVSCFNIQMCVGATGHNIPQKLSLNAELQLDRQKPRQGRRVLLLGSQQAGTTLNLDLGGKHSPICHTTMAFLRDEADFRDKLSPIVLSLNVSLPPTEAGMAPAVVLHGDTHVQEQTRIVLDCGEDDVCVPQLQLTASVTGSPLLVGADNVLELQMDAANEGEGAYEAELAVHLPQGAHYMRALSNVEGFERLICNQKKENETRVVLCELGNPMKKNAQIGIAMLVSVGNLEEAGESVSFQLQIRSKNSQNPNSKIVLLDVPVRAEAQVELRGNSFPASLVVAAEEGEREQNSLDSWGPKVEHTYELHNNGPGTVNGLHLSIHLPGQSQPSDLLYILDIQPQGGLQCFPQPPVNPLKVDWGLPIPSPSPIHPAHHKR
T1 sequence (P08514 891-1039 partner limits assumed): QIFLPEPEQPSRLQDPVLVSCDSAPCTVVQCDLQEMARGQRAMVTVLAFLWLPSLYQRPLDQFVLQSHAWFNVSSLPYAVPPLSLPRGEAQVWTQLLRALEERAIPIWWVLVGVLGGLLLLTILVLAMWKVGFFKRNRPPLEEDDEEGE
T1 sequence (P05106 27-788): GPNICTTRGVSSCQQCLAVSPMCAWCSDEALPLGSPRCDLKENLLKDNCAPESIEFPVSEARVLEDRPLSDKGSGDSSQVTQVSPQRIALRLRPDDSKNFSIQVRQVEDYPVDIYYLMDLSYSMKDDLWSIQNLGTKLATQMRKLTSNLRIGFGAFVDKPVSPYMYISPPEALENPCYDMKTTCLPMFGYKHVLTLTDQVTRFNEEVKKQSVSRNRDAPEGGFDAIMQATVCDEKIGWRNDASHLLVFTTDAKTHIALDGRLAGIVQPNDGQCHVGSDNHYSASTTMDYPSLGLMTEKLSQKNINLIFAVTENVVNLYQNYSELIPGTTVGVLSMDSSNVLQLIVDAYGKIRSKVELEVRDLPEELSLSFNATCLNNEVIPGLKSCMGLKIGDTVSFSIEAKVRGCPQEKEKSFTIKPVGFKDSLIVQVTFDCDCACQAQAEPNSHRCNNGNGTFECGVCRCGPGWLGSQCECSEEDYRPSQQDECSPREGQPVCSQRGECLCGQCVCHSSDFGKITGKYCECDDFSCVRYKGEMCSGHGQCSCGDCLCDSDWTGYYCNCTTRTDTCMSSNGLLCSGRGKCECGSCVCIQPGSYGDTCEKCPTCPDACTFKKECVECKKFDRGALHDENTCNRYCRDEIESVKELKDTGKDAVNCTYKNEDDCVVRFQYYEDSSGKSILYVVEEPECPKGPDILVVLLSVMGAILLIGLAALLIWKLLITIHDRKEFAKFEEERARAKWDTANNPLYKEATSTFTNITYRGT
Description: The inhibition of the binding of fibrinogen to its receptor (glycoprotein IIb/IIIa) which is brought about by the compounds according to the invention is tested on the isolated receptor, which was isolated from human thrombocytes and immobilized in microtitre plates.

[2] = system: gel-filtered human thrombocytes; experiment: Inhibition of the aggregation of gel-filtered human thrombocytes following stimulation with ADP or thrombin (Test method 1); assay type: cell-based; settings: 1 mg/ml fibrinogen, 37° C., GFP from 2-4 donors
Description: As a functional test, measurement is made of the inhibition of the aggregation of gel-filtered human thrombocytes, following stimulation with ADP or thrombin, by the compounds according to the invention.
For this purpose, human thrombocytes were isolated from platelet-rich plasma (PRP) by gel filtration on Sepharose 2 B. The resulting suspension of gel-filtered platelets (GFP), which contained 3×10^8 platelets/ml, was activated in the presence of 1 mg/ml of fibrinogen either with 10 μM ADP or with 0.1 U/ml thrombin, and stirred in an aggregometer (PAP 4, Biodata, Hatboro, Penna., USA) at 37° C. and at 1000 revolutions per minute. The maximum increase in the translucency is taken as a measure of the aggregation. The test substances were added to the GFP at 37° C. and 2 min before activating with ADP or thrombin.

[3] = read-out: Ki, inhibition of the binding of 125I-fibrinogen, ADP-stimulated
[4] = Homo sapiens, ADP-stimulated (10 μM ADP), read-out: IC50, inhibition of thrombocyte aggregation, ADP-stimulated
[5] = Homo sapiens, Thrombin-stimulated (0.1 U/ml thrombin), read-out: IC50, inhibition of thrombocyte aggregation, Thrombin-stimulated
[6] = Ki, inhibition of the binding of 125I-fibrinogen, ADP-stimulated
[7] = ADP-stimulated (10 μM ADP), read-out: IC50, inhibition of thrombocyte aggregation, ADP-stimulated
[8] = Thrombin-stimulated (0.1 U/ml thrombin), read-out: IC50, inhibition of thrombocyte aggregation, Thrombin-stimulated

Compound	Ki [1, 3]	IC50 [2, 4]	IC50 [2, 5]	Ki [1, 6]	IC50 [2, 7]	IC50 [2, 8]
N=C(N)c1ccc(C2(Cc3ccccc3)NC(=O)N(CC(=O)N[C@@H](CC(=O)O)C(=O)N[C@H](C(=O)O)c3ccccc3)C2=O)cc1 (stereo partly drawn) [Example 28, ((R,S)-4-(4-(Aminoiminomethyl)phenyl)-4-benyl-2,5-dioxoimidazolidin-1-yl)acetyl-L-aspartyl-L-phenylglycine]	0.078 nM	25 nM	40 nM			
CC1(c2ccc(C(=N)N)cc2)NC(=O)N(CC(=O)NC(CC(=O)O)c2ccc(-c3ccccc3)cc2)C1=O (racemic) [Example 46, (R,S)-3-(((R,S)-4-(4-Aminoiminomethyl)phenyl)-4-methyl-2,5-dioxoimidazolidin-1-yl)acetylamino)-3-(4-phenylphenyl)propionic acid]	1.23 nM	100 nM	100 nM			
CC1(c2ccc(C(=N)N)cc2)C(=O)N(CC(=O)N[C@@H](CC(=O)O)C(=O)N[C@H](C(=O)O)c2ccccc2)C(=O)N1Cc1ccccc1 (stereo partly shown) [Example 25]	0.175 nM	30 nM	50 nM			
CC1(c2ccc(C(=N)N)cc2)NC(=O)N(CC(=O)N[C@@H](CC(=O)O)C(=O)N[C@H](C(=O)O)c2ccccc2)C1=O (single isomer, unassigned) [Example 22, ((R or S)-4-(4-(Aminoiminomethyl)phenyl)-4-methyl-2,5-dioxoimidazolidin-1-yl)acetyl-L-aspartyl-L-phenylglycine]				0.15 nM	25 nM	50 nM
CC1(c2ccc(C(=N)N)cc2)NC(=O)N(CC(=O)NC(CC(=O)O)c2ccc(C(=O)O)cc2)C1=O (racemic) [Example 40, (R,S)-3-(((R,S)-4-(4-(Aminoiminomethyl)phenyl)-4-methyl-2,5-dioxoimidazolidin-1-yl)acetylamino)-3-(4-hydroxycarbonylphenyl)propionic acid]	1.99 nM	400 nM	250 nM			
CC1(c2ccc(C(=N)N)cc2)NC(=O)N(CC(=O)NC(CC(=O)O)c2ccccc2)C1=O (racemic) [Example 13, (R,S)-3-(((R,S)-4-(4-(Aminoiminomethyl)phenyl)-4-methyl-2,5-dioxoimidazolidin-1-yl)acetylamino)-3-phenylpropionic acid hydrochloride]	0.748 nM	200 nM	200 nM			
CC1(c2ccc(C(=N)N)cc2)NC(=O)N(CC(=O)NC(CC(=O)O)c2cccc([N+](=O)[O-])c2)C1=O (racemic) [Example 39, (R,S)-3-(((R,S)-4-(4-(Aminoiminomethyl)phenyl)-4-methyl-2,5-dioxoimidazolidin-1-yl)acetylamino)-3-(3-nitrophenyl)propionic acid]	0.948 nM	80 nM	150 nM			
CC1(c2ccc(C(=N)N)cc2)NC(=O)N(CC(=O)N[C@@H](CC(=O)O)C(=O)N[C@H](C(=O)O)c2ccccc2)C1=O (single isomer, unassigned) [Example 21, ((S or R)-4-(4-(Aminoiminomethyl)phenyl)-4-methyl-2,5-dioxoimidazolidin-1-yl)acetyl-L-aspartyl-L-phenylglycine]				1.9 nM	800 nM	500 nM
CCN1C(=O)N(CC(=O)N[C@@H](CC(=O)O)C(=O)N[C@H](C(=O)O)c2ccccc2)C(=O)C1(C)c1ccc(C(=N)N)cc1 (stereo partly drawn) [Example 24, ((R,S)-4-(4-(Aminoiminomethyl)phenyl)-3-ethyl-4-methyl-2,5-dioxoimidazolidin-1-yl)acetyl-L-aspartyl-L-phenylglycine]					55 nM	80 nM
CC1(c2ccc(C(=N)N)cc2)NC(=O)N(CC(=O)NC(CS(=O)(=O)NC(=O)Nc2ccccc2)C(=O)OCc2ccccc2)C1=O (racemic) [Example 34, 2-((R,S)-4-(4-Aminoiminomethyl)phenyl)-4-methyl-2,5-dioxoimidazolidin-1-yl)-N-((R,S)-1-benzyloxycarbonyl-2-(3-phenylureidosulphonyl)ethyl)acetamide]		2500 nM	1500 nM			
CCC1(c2ccc(C(=N)N)cc2)NC(=O)N(CC(=O)N[C@@H](CC(=O)O)C(=O)N[C@H](C(=O)O)c2ccccc2)C1=O (stereo partly drawn) [Example 27, ((R,S)-4-(4-(Aminoiminomethyl)phenyl)-4-ethyl-2,5-dioxoimidazolidin-1-yl)acetyl-L-aspartyl-L-phenylglycine]	0.107 nM	25 nM	40 nM			
N=C(N)c1ccc(CC2NC(=O)N(CC(=O)NC[C@H](NC(=O)OCc3ccccc3)C(=O)O)C2=O)cc1 (stereo partly drawn) [Example 9, 3-(((R,S)-4-(4-(Aminoiminomethyl)benzyl)-2,5-dioxoimidazolidin-1-yl)acetylamino)-2-benzyloxycarbonylaminopropionic acid]		1000 nM	500 nM			
CN1C(=O)N(CC(=O)NC(CC(=O)O)c2ccccc2)C(=O)C1(C)c1ccc(C(=N)N)cc1 (racemic) [Example 50, (R,S)-3-(((R,S)-4-(4-(Aminoiminomethyl)phenyl)-3,4-dimethyl-2,5-dioxoimidazolidin-1-yl)acetylamino)-3-phenylpropionic acid]		550 nM	400 nM			
CC1(c2ccc(C(=N)N)cc2)NC(=O)N(CC(=O)NC(CC(=O)O)c2cccc(Oc3ccccc3)c2)C1=O (racemic) [Example 43, (R,S)-3-(((R,S)-4-(4-(Aminoiminomethyl)phenyl)-4-methyl-2,5-dioxoimidazolidin-1-yl)acetylamino)-3-(3-phenoxyphenyl)propionic acid]		500 nM	500 nM			
CC1(c2ccc(C(=N)N)cc2)NC(=O)N(CC(=O)NC(CC(=O)O)c2ccc3c(c2)OCO3)C1=O (racemic) [Example 67, (R,S)-3-(((R,S)-4-(4-(aminoiminomethyl)phenyl)-4-methyl-2,5-dioxoimidazolidin-1-yl)acetylamino)-3-(3,4-methylenedioxyphenyl)propionic acid]		80 nM	200 nM			
CC1(c2ccc(NC(=N)N)cc2)NC(=O)N(CC(=O)N[C@@H](CC(=O)O)C(=O)N[C@H](C(=O)O)c2ccccc2)C1=O (stereo partly drawn) [Example 10, ((R,S)-4-(4-Guanidinophenyl)-4-methyl-2,5-dioxoimidazolidin-1-yl)acetyl-L-aspartyl-L-phenylglycine]		150 nM	60 nM			
CC1(c2ccc(C(=N)N)cc2)NC(=O)N(CC(=O)N[C@@H](CC(=O)O)C(=O)NC2C3CC4CC(C3)CC2C4)C1=O (stereo partly drawn) [Example 69, (2-((R,S)-4-(4-(Aminoiminomethyl)phenyl)-4-methyl-2,5-dioxoimidazolidin-1-yl)acetyl)-L-aspartyl-2-adamantylamide]		25 nM	45 nM			
CC1(c2ccc(C(=N)N)cc2)NC(=O)N(CC(=O)NC(CC(=O)O)C2CCCCC2)C1=O (racemic) [Example 49, (R,S)-3-(((R,S)-4-(4-(Aminoiminomethyl)phenyl)-4-methyl-2,5-dioxoimidazolidin-1-yl)acetylamino)-3-cyclohexylpropionic acid]		600 nM	200 nM			
CC1(c2ccc(C(=N)N)cc2)NC(=O)N(CC(=O)N[C@H](CC(=O)O)c2ccccc2)C1=O (single isomer, unassigned) [Example 59, (R)-3-(((S or R)-4-(4-(aminoiminomethyl)phenyl)-4-methyl-2,5-dioxoimidazolidin-1-yl)acetylamino)-3-phenylpropionic acid]					50000 nM	40000 nM
CC1(c2ccc(CN)cc2)NC(=O)N(CC(=O)N[C@@H](CC(=O)O)C(=O)N[C@H](C(=O)O)c2ccccc2)C1=O (stereo partly drawn) [Example 8, ((R,S)-4-(4-(Aminomethyl)phenyl)-4-methyl-2,5-dioxoimidazolidin-1-yl)acetyl-L-aspartyl-L-phenylglycine]		150 nM	100 nM			
CC1(c2ccc(C(=N)N)cc2)NC(=O)N(CC(=O)NC(CC(=O)O)c2cccc3ccccc23)C1=O (racemic) [Example 38, (R,S)-3-(((R,S)-4-(4-(Aminoiminomethyl)phenyl)-4-methyl-2,5-dioxoimidazolidin-1-yl)acetylamino)-3-(1-naphthyl)propionic acid]		300 nM	350 nM			
CC1(c2ccc(C(=N)N)cc2)NC(=O)N(CC(=O)NC[C@H](N)C(=O)O)C1=O (stereo partly drawn) [Example 7, 2-Amino-3-(((R,S)-4-(4-(aminoiminomethyl)-phenyl)-4-methyl-2,5-dioxoimidazolidin-1-yl)acetylamino)propionic acid hydrochloride]		300 nM	300 nM			
CC(C)(C)OC(=O)NN(CC(=O)O)C(=O)CN1C(=O)NC(=Cc2ccc(C(=N)N)cc2)C1=O [Example 20]		2000 nM	1000 nM			
